The record followed here is ChEMBL document CHEMBL5230081, “Battle against Vancomycin-Resistant Bacteria: Recent Developments in Chemical Strategies” (J Med Chem, 2019).

Common to all, as to type: functional
The test system of experiment [1] is Escherichia coli. Kind of experiment: Synergistic antibacterial activity against multidrug-resistant Escherichia coli assessed as reduction in bacterial viability after 12 hrs in presence of 1/2 MIC of trimethoprim.
For experiment [2], the system named is Enterococcus faecalis. In words: Antimicrobial activity against Vancomycin - resistant Enterococcus faecalis assessed as inhibition of bacterial growth.
Experiment [3] concerns Escherichia coli. In words: Synergistic antibacterial activity against multidrug-resistant Escherichia coli assessed as reduction in bacterial viability after 12 hrs in presence of 1/2 MIC of nitrofurantoin.
For experiment [4], the system named is Enterococcus faecalis. In words: Antibiofilm activity against Enterococcus faecalis ATCC 47077 biofilms assessed as biofilm eradication.
In experiment [5] the test system is Escherichia coli. Kind of experiment: Synergistic antibacterial activity against Escherichia coli in presence of nitrofurantoin.
Experiment [6] relates to Staphylococcus aureus. Kind of experiment: Antibacterial activity against Staphylococcus aureus assessed as biofilm formation.
Experiment [7] relates to Pseudomonas aeruginosa. In words: Synergistic antibacterial activity against multidrug-resistant Pseudomonas aeruginosa ATCC 27853 assessed as reduction in bacterial viability after 12 hrs in presence of 1/2 MIC of vancomycin.
The test system of experiment [8] is Escherichia coli. Kind of experiment: Synergistic antibacterial activity against Escherichia coli in presence of Trimethoprim.
The subject of experiment [9] is Pseudomonas aeruginosa. In words: Antibacterial activity against Pseudomonas aeruginosa ATCC 27853 assessed as bacterial growth inhibition measured after 24 hrs by microbroth dilution method.
Experiment [10] has as its system Enterococcus faecalis. Kind of experiment: Antimicrobial activity against Vancomycin - resistant Enterococcus faecalis SR7914 assessed as inhibition of bacterial growth.
The subject of experiment [11] is Enterococcus faecium. Kind of experiment: Antibacterial activity against Enterococcus faecium SR7917 (VRE).
The subject of experiment [12] is Enterococcus faecium. Kind of experiment: Antimicrobial activity against Vancomycin-resistant (Van S) Enterococcus faecium ATCC 51559 assessed as reduction in microbial growth.
Experiment [13] deals with Enterococcus faecium. Kind of experiment: Antimicrobial activity against Vancomycin-resistant (Van A) Enterococcus faecium ATCC 51559 assessed as reduction in microbial growth.
Experiment [14] deals with Staphylococcus aureus. Kind of experiment: Antibacterial activity against Vancomycin-intermediate Staphylococcus aureus NRS1 assessed as bacterial growth inhibition.
The subject of experiment [15] is Enterococcus faecium. Kind of experiment: Antibacterial activity against Vancomycin-resistant Enterococcus faecium assessed as colony forming unit at 20 times MIC concentration measured after 21 days by time kill assay. The note with it: time 21 day.
For experiment [16], the system named is Enterococcus faecium. Kind of experiment: Antibacterial activity against Vancomycin-resistant Enterococcus faecium assessed as reduction in bacterial growth measured after 48 hrs by microbroth dilution method.
For experiment [17], the system named is Pseudomonas aeruginosa. In words: Antibacterial activity against multi drug resistant Pseudomonas aeruginosa assessed as reduction in microbial growth after 16 to 18 hrs by microbroth dilution method. The settings on record: time 16-18 hrs.
For experiment [18], the system named is Pseudomonas aeruginosa. In words: Antibacterial activity against colistin-resistant Pseudomonas aeruginosa PA101243 assessed as reduction in bacterial growth after 18 hrs by microbroth dilution method.
For a further experiment, the system named is Klebsiella pneumoniae. In words: Antibacterial activity against Klebsiella pneumoniae R3949 assessed as reduction in bacterial growth in presence of Meropenem by broth microdilution method.
Experiment [19] deals with Acinetobacter baumannii. In words: Antibacterial activity against Acinetobacter baumannii R4942 assessed as reduction in bacterial growth by broth microdilution method.
Experiment [20] deals with Enterococcus faecium. In words: Antimicrobial activity against Vancomycin-resistant Enterococcus faecium ATCC 51559 assessed as inhibition in microbial growth measured after 48 hrs by microbroth dilution method.
In experiment [21] the test system is Acinetobacter baumannii. In words: Antibacterial activity against Acinetobacter baumannii R4942 assessed as reduction in bacterial growth in presence of telavancin by broth microdilution method.
Experiment [22] has as its system Pseudomonas aeruginosa. Kind of experiment: Antibacterial activity against Pseudomonas aeruginosa R590 assessed as reduction in bacterial growth by broth microdilution method.
The subject of another experiment is Enterobacter cloacae. Kind of experiment: Antibacterial activity against Enterobacter cloacae NDM-1 assessed as reduction in bacterial growth by broth microdilution method.
Experiment [23] relates to Acinetobacter baumannii. In words: Antimicrobial activity against Acinetobacter baumannii assessed as microbial growth inhibition.
Experiment [24] relates to Acinetobacter baumannii. In words: Antimicrobial activity against Acinetobacter baumannii ATCC 17978 assessed as microbial growth inhibition.
Experiment [25] relates to Acinetobacter baumannii. Kind of experiment: Antibacterial activity against Acinetobacter baumannii R4942 assessed as reduction in bacterial growth in presence of teicoplanin by broth microdilution method.
Experiment [26] relates to Pseudomonas aeruginosa. In words: Antibacterial activity against Pseudomonas aeruginosa R590 assessed as reduction in bacterial growth in presence of vancomycin by broth microdilution method.
The test system of experiment [27] is Escherichia coli. Kind of experiment: Antibacterial activity against Escherichia coli assessed as bacterial growth inhibition measured after 48 hrs in presence of vancomycin.
Experiment [28] concerns Escherichia coli. In words: Antimicrobial activity against Escherichia coli ATCC 8739 assessed as microbial growth inhibition in presence of Vancomycin by agar dilution method.
Experiment [29] has as its system Escherichia coli. Kind of experiment: Antibacterial activity against Escherichia coli ATCC 25922 assessed as bacterial growth inhibition measured after 48 hrs in presence of vancomycin.

Values after ≈ are worked out from the molar mass of the structure shown.

As for `CN[C@H](CC(C)C)C(=O)N[C@H]1C(=O)N[C@@H](CC(N)=O)C(=O)N[C@H]2C(=O)N[C@H]3C(=O)N[C@H](C(=O)N[C@H](C(=O)O)c4cc(O)cc(O)c4-c4cc3ccc4O)[C@H](O)c3ccc(c(Cl)c3)Oc3cc2cc(c3O[C@@H]2O[C@H](CO)[C@@H](O)[C@H](O)[C@H]2O[C@H]2C[C@](C)(N)[C@H](O)[C@H](C)O2)Oc2ccc(cc2Cl)[C@H]1O` [VANCOMYCIN], the MIC came to 3.5 µg/mL in the experiment on Escherichia coli [1]; 31 µg/mL (≈ 21.4 µM) in the experiment with Enterococcus faecalis [2]; 12.5 µg/mL with Escherichia coli [3]; 6.25 µg/mL in the experiment on Escherichia coli [5]; 0.2 µg/mL in the experiment on Escherichia coli [8]; 0.5 µg/mL (≈ 0.345 µM) in the experiment with Pseudomonas aeruginosa [9]. The MBEC with Enterococcus faecalis [4] and with Staphylococcus aureus [6] was more than 512 µg/mL throughout. Moreover, the “fractional inhibitory concentration index (FICI)” value in the experiment with Pseudomonas aeruginosa [7] is less than 0.5.

With `CCCCCCCCCCCCCCCCC[C@H]1CN(C)[C@@H]([C@H](O[C@@H]2O[C@H](CN)[C@@H](O)[C@H]2O)[C@H]2O[C@@H](n3ccc(=O)[nH]c3=O)[C@H](O)[C@@H]2O)C(=O)N(C)[C@@H]1C(=O)O`, the MIC with Enterococcus faecalis [10] and in the experiment on Enterococcus faecium [11] was 8 µg/mL (≈ 10 µM) each time.

As for `CCCCCCCCCC(=O)O[C@@H]1c2ccc(c(Cl)c2)Oc2cc3cc(c2O[C@@H]2O[C@H](CO)[C@@H](O)[C@H](O)[C@H]2O[C@H]2C[C@](C)(N)[C@H](O)[C@H](C)O2)Oc2ccc(cc2Cl)[C@@H](O)[C@@H](NC(=O)[C@@H](CC(C)C)NC)C(=O)N[C@@H](CC(N)=O)C(=O)N[C@H]3C(=O)N[C@H]2C(=O)N[C@@H]1C(=O)N[C@H](C(=O)O)c1ccccc1-c1cccc2c1`, the MIC in the experiment on Enterococcus faecium [12] stood at 0.25 µg/mL.

Take `CN[C@H](CC(C)C)C(=O)N[C@H]1C(=O)N[C@@H](CC(N)=O)C(=O)N[C@H]2C(=O)N[C@H]3C(=O)N[C@H](C(=O)N[C@H](C(=O)NCCCCCCN(Cc4ccccn4)Cc4ccccn4)c4cc(O)cc(O)c4-c4cc3ccc4O)[C@H](O)c3ccc(c(Cl)c3)Oc3cc2cc(c3O[C@@H]2O[C@H](CO)[C@@H](O)[C@H](O)[C@H]2O[C@H]2C[C@](C)(N)[C@H](O)[C@H](C)O2)Oc2ccc(cc2Cl)[C@H]1O`: the MIC with Enterococcus faecium [13] came to 1.5 µM; in the experiment with Enterococcus faecium [13] (Enterococcus faecium, ATCC 51559, read-out: MIC), 2 µM; in the experiment on Staphylococcus aureus [14], 1 µM (≈ 1.73 µg/mL). Besides, in the experiment on Enterococcus faecium [15], the Activity turned out to be 5 log10/ml.

H-ILRWPWWPWRRK-NH2 [OMIGANAN]: the MIC in the experiment on Enterococcus faecium [16] is 2 µg/mL.

As to `NC[C@H]1O[C@H](O[C@H]2[C@H](O)[C@@H](O[C@H]3O[C@H](CO)[C@@H](O)[C@H](N)[C@H]3O)[C@H](N)C[C@@H]2N)[C@H](N)C[C@@H]1O` [TOBRAMYCIN], the MIC in the experiment on Pseudomonas aeruginosa [17] was 0.7 µM.

On to `C[C@@H](O)[C@H]1C(=O)N2C(C(=O)O)=C(S[C@@H]3CN[C@H](C(=O)N(C)C)C3)[C@H](C)[C@H]12` [MEROPENEM], for which the minimum inhibitory concentration (MIC) in the experiment on Pseudomonas aeruginosa [18] is less than 1 µg/mL.

On to `CCCCCCCCCCCCCC[N+](C)(C)CCCNC(=O)[C@H]1NC(=O)[C@H]2NC(=O)[C@H](NC(=O)[C@@H]3NC(=O)[C@H](CC(N)=O)NC(=O)[C@H](NC(=O)[C@@H](CC(C)C)NC)[C@H](O)c4ccc(c(Cl)c4)Oc4cc3cc(c4O[C@@H]3O[C@H](CO)[C@@H](O)[C@H](O)[C@H]3O[C@H]3C[C@](C)(N)[C@H](O)[C@H](C)O3)Oc3ccc(cc3Cl)[C@H]2O)c2ccc(O)c(c2)-c2c(O)cc(O)cc21`, for which the MIC with Klebsiella pneumoniae was 3.15 µg/mL; in the experiment on Acinetobacter baumannii [19], 3 µM; in the experiment with Enterococcus faecium [20], 1.2 µM; in the experiment with Acinetobacter baumannii [21] it was less than 1 µg/mL; in the experiment with Pseudomonas aeruginosa [22], 6.1 µM; in the experiment on Enterobacter cloacae, 12.5 µM. Moreover, the MIC with Acinetobacter baumannii [23] was 3 µM; in the experiment with Acinetobacter baumannii [24], not above 2 µg/mL; in the experiment with Acinetobacter baumannii [25], not above 2 µg/mL; with Pseudomonas aeruginosa [26], 0.5 µg/mL; in the experiment on Escherichia coli [27], 6.25 µg/mL; in the experiment with Escherichia coli [28], 6 µg/mL. In addition, the minimal inhibitory concentration (MIC) with Escherichia coli [29] is 12.5 µg/mL.
